In paper PMC10923054, “Antiplasmodial peptaibols act through membrane directed mechanisms” (Cell Chemical Biology, 2024):
Square brackets hold non-standard residues; d marks the D form. Peptide text beside a SMILES is read from it. Phe(ol) = N[C@H](CO)Cc1ccccc1; Leu(ol) = CC(C)C[C@H](N)CO; dIva = CC[C@@](C)(N)C(=O)O; Aib = CC(C)(N)C(=O)O

Experiments:
[1] = Electrophysiology: reconstitution into planar lipid bilayers; settings: for channel activity in planar lipid bilayers: 1 μM peptaibol, DPhPc bilayers, pH 7.0 saline; for Channel Induction: Figure 7A summary; on Channel Induction: key: -: A '–' indicates a negative finding; a single '+' indicates a positive finding; a double '++' indicates a strong positive finding
Method: Ion channel formation by peptaibols was evaluated with reconstitution into planar lipid bilayers using the Orbit Mini workstation (Nanion). Bilayers were formed from a 5 mg/ml decane solution of 1,2-diphytanoyl-sn-glycero-3-phosphocholine (DPhPc, Avanti Polar Lipids) across 100 μm diameter orifices in the MECA 4 recording chip with 4 microcavities. The bilayers were bathed with saline (in mM: 70 NaCl, 70 KCl, 2.5 MgCl2, 2 CaCl2, 10 HEPES, 10 MES, 10 glucose, pH 7.0) at both faces, with resistances of up to 500 GΩ before channel incorporation. Peptaibols were added from a 10 mM DMSO stock to the cis chamber at a final 1 μM concentration; spontaneous incorporation into the bilayer typically occurred within 10–15 min. Recordings were acquired at 20 kHz and filtered at 1.25 kHz.

[2] = tested on: synchronized Dd2 parasites; test: Synchronous stage specificity assay (SSA); format: cell-based, P. falciparum; settings: for stage of parasite arrest when added at 6 HPI: 5 x EC50 (TC HA-II 3 x EC50), Giemsa and YOYO-1 flow cytometry; for Stage of Inhibition: Figure 7A summary
Method: SSA was performed in triplicate as previously described.[64] In summary, Dd2 culture was synchronized by combination of MACS column[65] and sorbitol treatment,[66] and cultured at 1% parasitemia, 2% hematocrit, for 54 h. Compound was added at approximately 6, 18, 30, or 42 HPI, and samples were taken every 12 h after treatment times for Giemsa staining and flow cytometric analysis. HZ NPDG-H and HZ NPDG-I were tested at 5 x EC50, TC HA-II tested at 3 x EC50 due to its higher hemolytic potential. All test values above EC90. Flow samples were fixed in 4% paraformaldehyde, incubated for 30 min at 37°C, then washed 3 times in PBS. Fixed samples were stored at 4°C prior to staining, then resuspended in 0.25% Trition X-100 and incubated for 10 min with shaking. Permeabilized samples were centrifuged and resuspended in a 50 μg/mL RNase solution, and incubated for 3 h at 37°C. After centrifugation, samples were resuspended in a YOYO-1 solution (500 nM final concentration) and read on a CytoFLEX S (Beckman Coulter, Brea, CA) at 488 nm excitation, with 100,000–500,000 events recorded per sample. Infected RBCs were gated using an uninfected RBC control in FlowJo version 10. After gating populations, FITC channel values were extracted from FlowJo and the sum total fluorescence of the iRBCs and the median fluorescence for each timepoint were graphed in Graph Pad Prism Version 9. Assay workflow outline was created using BioRender.

[3] = tested on: P. falciparum asexual blood stage parasites grown in 10% human serum; test: Antiplasmodial activity with serum media; format: cell-based; settings: RPMI with 10% human serum, maintained minimum 2 weeks; mean ± SEM from 3 biological replicates
Method: Asexual blood stage parasites grown in the Chakrabarti laboratory were cultured based on a protocol by Trager and Jensen[57] with some modifications.[35] […] For comparison screening using serum vs Albumax II, culture media was changed from RPMI with 0.5% Albumax II to RPMI with 10% human serum and maintained for a minimum of 2 weeks prior to assay use.
(§1) Inhibitor EC50 determination in 3D7 and Dd2 was performed as discussed in,[35] based on established protocols.[60] Assays utilized asynchronous culture at 1% parasitemia, 1% hematocrit. Culture was incubated with compound dilutions for 72 h followed by freezing at −80°C to promote lysis, then thawing and incubation for 45 min–1 h with 1× SYBR Green I in a lysis buffer (20 mM Tris-HCL, 0.08% saponin, 5 mM EDTA, and 0.8% Triton X-100). Fluorescence was read 485 nm excitation, 530 nm emission on a Synergy Neo2 multimode reader (BioTek Winsooki, VT) and EC50 curves were generated using CDD Vault (https://www.collaborativedrug.com/).

[4] = tested on: P. falciparum 3D7; test: Phenotypic screen: asexual blood stage EC50 determination (SYBR Green I); format: cell-based; settings: CQ sensitive line, asynchronous culture, 72 h, mean ± SEM, biological triplicate
Method: Asexual blood stage parasites grown in the Chakrabarti laboratory were cultured based on a protocol by Trager and Jensen[57] with some modifications.[35] Culture was maintained at 4% hematocrit with human A+ whole blood obtained from the Florida OneBlood, in RPMI 1640 supplemented with 25 mM HEPES pH 7.4, 26 mM NaHCO3, 2% dextrose, 15 mg/L hypoxanthine, 25 mg/L gentamycin, and 0.5% Albumax II. Incubator conditions remained at 37°C and 5% CO2, 5% O2, 90% N2, or 95% air. For comparison screening using serum vs Albumax II, culture media was changed from RPMI with 0.5% Albumax II to RPMI with 10% human serum and maintained for a minimum of 2 weeks prior to assay use.
as §1

[5] = tested on: Dd2 strain parasites, digestive vacuole; test: Transmission electron microscopy of treated parasites; further: key: -: A '–' indicates a negative finding; a single '+' indicates a positive finding; a double '++' indicates a strong positive finding; format: cell-based, P. falciparum; settings: Figure 7A summary
Method: For TEM imaging, samples were prepared as previously described.[67] […] Culture was collected by centrifugation and washed with PBS, pH 7.4. Samples were then fixed in 2% paraformaldehyde, 2.5% glutaraldehyde, in a 0.1 M sodium cacodylate buffer, pH of 7.4, (Electron Microscopy Sciences, Hatfield, PA) and incubated for 2 h at room temp with mild shaking. After fixation, samples were pelleted and stored cold but not frozen in 0.2 M sodium cacodylate buffer prior to staining and embedment in Eponate 12 resin (Ted Pella Inc.). Images were taken using a JEOL 1200 EX transmission electron microscope (JEOL USA Inc., Peabody MA) and processed in AMT Image Capture Engine V602 software (Advanced Microscopy Techniques, Woburn, MA.).

[6] = tested on: PfMDR1 cKD parasite line; test: MDR1 compound susceptibility assay (Renilla luciferase); on pfMDR1 cKD Sensitivity: key: -: A '–' indicates a negative finding; a single '+' indicates a positive finding; a double '++' indicates a strong positive finding; format: cell-based, P. falciparum; settings: for shift in sensitivity upon PfMDR1 knockdown: with (0.5 μM) vs without aTc, 72 h, luminescence; for pfMDR1 cKD Sensitivity: Figure 7A summary / graphical abstract
Source text: A conditional knockdown parasite line was generated for the P. falciparum multi-drug resistance 1 (MDR1; PF3D7_0523000) following previously described procedures.[84]^,[85] The native PfMDR1 locus was engineered using CRISPR/SpCas9 to afford transcriptional fusion of 10 tandem TetR-DOZI binding aptamers in the 3′UTR for anhydrotetracycline (aTc)-dependent regulation of PfMDR1 expression.
As a control cell line, a parasite line expressing an aptamer-regulatable fluorescent protein integrated in the cg6 locus[84] was assayed in parallel. Synchronous ring-stage parasites in the presence (0.5 μM) and absence of aTc were dispensed into 384-well polystyrene microplates (Corning®), and compounds added using the Janus® platform (PerkinElmer). DMSO- and DHA (0.5 μM) served as normalization controls for maximal and minimum signal. Luminescence was measured after 72 h and IC50 values were obtained from normalized dose-response curves using GraphPad Prism Version 8.

Compound	channel activity in planar lipid bilayers [1]	Channel Induction [1]	stage of parasite arrest when added at 6 HPI [2]	Stage of Inhibition [2]	EC50 [3] [nM]	EC50 [4] [nM]	DV Abnormalities [5]	shift in sensitivity upon PfMDR1 knockdown [6]	pfMDR1 cKD Sensitivity [6]
CC[C@@](C)(NC(=O)C(C)(C)NC(=O)[C@H](CC(C)C)NC(=O)[C@@H]1CCCN1C(=O)C(C)(C)NC(=O)[C@H](CC(C)C)NC(=O)CNC(=O)C(C)(C)NC(=O)[C@@H](NC(=O)C(C)(C)NC(=O)[C@H](CCC(N)=O)NC(=O)C(C)(C)NC(=O)C(C)(C)NC(=O)[C@H](C)NC(=O)CNC(=O)C(C)(C)NC(C)=O)C(C)C)C(=O)N[C@@H](CCC(N)=O)C(=O)N[C@H](CO)CC(C)C [TC HA-II, trichorzin HA II] (Ac-[Aib]GA[Aib][Aib]Q[Aib]V[Aib]GL[Aib]PL[Aib][dIva]Q[Leu(ol)])	did not reveal channel activity	-	early arrest with a condensed permatroph morphology	Ring	2200 ± 270	390 ± 90	+	no differential sensitivity	
CC(=O)NC(C)(C)C(=O)N1CCC[C@H]1C(=O)NC(C)(C)C(=O)N[C@@H](C)C(=O)NC(C)(C)C(=O)N[C@@H](C)C(=O)N[C@@H](CCC(N)=O)C(=O)NC(C)(C)C(=O)N[C@H](C(=O)NC(C)(C)C(=O)NCC(=O)N[C@@H](CC(C)C)C(=O)NC(C)(C)C(=O)N1CCC[C@H]1C(=O)N[C@H](C(=O)NC(C)(C)C(=O)NC(C)(C)C(=O)N[C@@H](CCC(=O)O)C(=O)N[C@@H](CCC(N)=O)C(=O)N[C@H](CO)Cc1ccccc1)C(C)C)C(C)C [Alamethicin, reference compound] (Ac-[Aib]P[Aib]A[Aib]AQ[Aib]V[Aib]GL[Aib]PV[Aib][Aib]EQ[Phe(ol)]; N-terminus assumed)						540 ± 30		no differential sensitivity	
CC[C@H](C)[C@H](NC(=O)[C@H](C)NC(=O)[C@@H]1CCCN1C(=O)C(C)(C)NC(=O)[C@H](CC(C)C)NC(=O)[C@H](CCC(N)=O)NC(=O)[C@@](C)(CC)NC(C)=O)C(=O)NC(C)(C)C(=O)N1CCC[C@H]1C(=O)N[C@](C)(CC)C(=O)N[C@@H](CC(C)C)C(=O)NC(C)(C)C(=O)N1CCC[C@H]1C(=O)N[C@H](CO)CC(C)C [HZ NPDG-H, harzianin NPDG H] (Ac-[dIva]QL[Aib]PAI[Aib]P[dIva]L[Aib]P[Leu(ol)])	did not induce detectable channel activity	-	late trophozoite to early schizont stage	Schizont	690 ± 90	120 ± 10	+	~6 fold	+
CC[C@H](C)[C@H](NC(=O)[C@H](CC(C)C)NC(=O)[C@H](CCC(N)=O)NC(=O)[C@@](C)(CC)NC(C)=O)C(=O)NC(C)(C)C(=O)N1CCC[C@H]1C(=O)N[C@](C)(CC)C(=O)N[C@@H](CC(C)C)C(=O)NC(C)(C)C(=O)N1CCC[C@H]1C(=O)N[C@H](CO)CC(C)C [HZ NPDG-I, harzianin NPDG I] (Ac-[dIva]QLI[Aib]P[dIva]L[Aib]P[Leu(ol)])	reproducibly induced unambiguous channel-like activity	+	arrest parasite development in early ring	Ring	260 ± 30	120 ± 10	+	43 fold	++
